From article PMC12837263, “β,β-Dimethylacrylalkannin Restores Colistin Efficacy Against mcr- and TCS-Mediated Resistant Gram-Negative Bacteria via Membrane Disturbance” (Antibiotics, 2025)

Experiments:
Assay type in all cases: cell-based
[1] = system: P. aeruginosa PAO1; experiment: Checkerboard assay (MIC, FICI)
Procedure: (§1) The FICI of β,β-Dim–colistin combination was determined by a checkerboard assay. Briefly, two-fold serial dilutions of β,β-Dim and colistin were prepared in a 96-well plate. After incubation at 37 °C for 18 h with bacterial suspension (10^6 CFU/mL), OD600 values were measured. FICI = (MICβ,β-Dim in combination/MICβ,β-Dim) + (MICcolistin in combination/MICcolistin). The synergistic effect of β,β-Dim with other antibiotics was measured in the same way. Synergy was considered to be an FICI ≤ 0.5.

[2] = system: E. coli BW25113-pmrAD82N(pmrA); experiment: Checkerboard assay (MIC, FICI)
Procedure: as §1

[3] = system: E. coli 13f4(mcr-1); experiment: Checkerboard assay (MIC, FICI)
Procedure: as §1

[4] = system: K. pneumoniae 251(mgrB、phoP、pmrA、blaKPC); experiment: Checkerboard assay (MIC, FICI)
Procedure: as §1

[5] = system: E. coli ZJ71(mcr-1); experiment: Checkerboard assay (MIC, FICI)
Procedure: as §1

[6] = system: E. coli pHSG299-mcr-3; experiment: Checkerboard assay (MIC, FICI)
Procedure: as §1

[7] = system: K. pneumoniae 667(phoP、pmrA、blaKPC); experiment: Checkerboard assay (MIC, FICI)
Procedure: as §1

[8] = system: K. pneumoniae 57(mcr-9、blaNDM); experiment: Checkerboard assay (MIC, FICI)
Procedure: as §1

[9] = system: E. coli BW25113-pmrBR93P(pmrB); experiment: Checkerboard assay (MIC, FICI)
Procedure: as §1

[10] = system: K. pneumoniae 650(mgrB、phoP、pmrA、blaKPC); experiment: Checkerboard assay (MIC, FICI)
Procedure: as §1

[11] = system: K. pneumoniae 197(mcr-1、blaNDM); experiment: Checkerboard assay (MIC, FICI)
Procedure: as §1

[12] = system: E. coli BW25113-184-mcr-1; experiment: Checkerboard assay (MIC, FICI)
Procedure: as §1

[13] = system: K. pneumoniae 29(mcr-8、pmrB、blaNDM); experiment: Checkerboard assay (MIC, FICI)
Procedure: as §1

[14] = system: K. pneumoniae 492(mcr-1、blaNDM); experiment: Checkerboard assay (MIC, FICI)
Procedure: as §1

[15] = system: E. coli ATCC 25922; experiment: Checkerboard assay (MIC, FICI)
Procedure: as §1

[16] = system: S. Typhimurium 9891(mcr-1); experiment: Checkerboard assay (MIC, FICI)
Procedure: as §1

[17] = system: A. baumannii ATCC 19606; experiment: Checkerboard assay (MIC, FICI)
Procedure: as §1

[18] = system: S. Typhimurium ATCC 14028; experiment: Checkerboard assay (MIC, FICI)
Procedure: as §1

[19] = system: K. pneumoniae 20(mcr-1); experiment: Checkerboard assay (MIC, FICI)
Procedure: as §1

[20] = system: K. pneumoniae 109(mcr-8); experiment: Checkerboard assay (MIC, FICI)
Procedure: as §1

[21] = system: P. aeruginosa 9(mcr-1); experiment: Checkerboard assay (MIC, FICI)
Procedure: as §1

[22] = system: E. coli BW25113-184; experiment: Checkerboard assay (MIC, FICI)
Procedure: as §1

[23] = system: K. pneumoniae 126(mcr-8); experiment: Checkerboard assay (MIC, FICI)
Procedure: as §1

[24] = system: K. pneumoniae ATCC 13883; experiment: Checkerboard assay (MIC, FICI)
Procedure: as §1

[25] = system: K. pneumoniae, E. coli, Salmonella, P. aeruginosa, and A. baumannii; experiment: Checkerboard assay, panel of tested strains (summary statements)
Procedure: as §1

[26] = system: K. pneumoniae 667; experiment: Bacterial growth curves; conditions: β,β-Dim 4 µg/mL, colistin 0.5 µg/mL, alone or combined; 24 h
Procedure: Overnight cultures of K. pneumoniae 667 and E. coli 13f4 were diluted to 10^6 CFU/mL; then, β,β-Dim (4 μg/mL), colistin (0.5 or 2 μg/mL), and their combination were co-incubated with bacterial suspensions in a 96-well plate. OD600 values were monitored hourly over a 24 h period.

[27] = Escherichia coli, BW25113, read-out: MIC of β,β-Dim
[28] = Escherichia coli, read-out: MIC of β,β-Dim
[29] = Klebsiella pneumoniae, read-out: MIC of β,β-Dim

For `CC(C)=CC[C@H](OC(=O)C=C(C)C)C1=CC(=O)c2c(O)ccc(O)c2C1=O` [β,β-Dim, β,β-dimethylacrylalkannin], the “MIC of β,β-Dim [Combination]” value ([1]; PAO1, with colistin) was 2 µg/mL, the MIC ([1]; Pseudomonas aeruginosa, PAO1, read-out: MIC of β,β-Dim) was > 128 µg/mL and the “MIC of β,β-Dim [Combination]” value ([2]; BW25113-pmrAD82N, with colistin) was 8 µg/mL. The MIC [2, 27] was > 128 µg/mL, the “MIC of β,β-Dim [Combination]” value ([3]; 13f4, with colistin) was 4 µg/mL and the MIC [3, 28] was > 128 µg/mL. For the same molecule, the “MIC of β,β-Dim [Combination]” value ([4]; 251, with colistin) was 4 µg/mL, the MIC [4, 29] was > 128 µg/mL and the MIC [5, 28] was > 128 µg/mL. The “MIC of β,β-Dim [Combination]” value ([5]; ZJ71, with colistin) was 4 µg/mL, the MIC ([6]; Escherichia coli, PHSG299MCR3, read-out: MIC of β,β-Dim) was > 128 µg/mL and the “MIC of β,β-Dim [Combination]” value ([6]; pHSG299-mcr-3, with colistin) was 8 µg/mL. The “MIC of β,β-Dim [Combination]” value ([7]; 667, with colistin) was 2 µg/mL, the MIC [7, 29] was > 128 µg/mL and the “MIC of β,β-Dim [Combination]” value ([8]; 57, with colistin) was 8 µg/mL. For the same molecule, the MIC [8, 29] was > 128 µg/mL, the “MIC of β,β-Dim [Combination]” value ([9]; BW25113-pmrBR93P, with colistin) was 8 µg/mL and the MIC [9, 27] was > 128 µg/mL. For the same molecule, the “MIC of β,β-Dim [Combination]” value ([10]; 650, with colistin) was 8 µg/mL, the MIC [10, 29] was > 128 µg/mL and the “MIC of β,β-Dim [Combination]” value ([11]; 197, with colistin) was 8 µg/mL. The MIC [11, 29] was > 128 µg/mL, the “MIC of β,β-Dim [Combination]” value ([12]; BW25113-184-mcr-1, with colistin) was 4 µg/mL and the MIC [12, 27] was > 128 µg/mL. The “MIC of β,β-Dim [Combination]” value ([13]; 29, with colistin) was 4 µg/mL, the MIC [13, 29] was > 128 µg/mL and the “MIC of β,β-Dim [Combination]” value ([14]; 492, with colistin) was 2 µg/mL. The MIC [14, 29] was > 128 µg/mL, the “MIC of β,β-Dim [Combination]” value ([15]; 25922, with colistin) was 2 µg/mL and the MIC ([15]; Escherichia coli, ATCC25922, read-out: MIC of β,β-Dim) was > 128 µg/mL. The “MIC of β,β-Dim [Combination]” value ([16]; 9891, with colistin) was 8 µg/mL, the MIC ([16]; Salmonella enterica, TYPHIMURIUM, read-out: MIC of β,β-Dim) was > 128 µg/mL and the “MIC of β,β-Dim [Combination]” value ([17]; 19606, with colistin) was 4 µg/mL. For the same molecule, the MIC ([17]; Acinetobacter baumannii, ATCC19606, read-out: MIC of β,β-Dim) was > 128 µg/mL, the “MIC of β,β-Dim [Combination]” value ([18]; 14028, with colistin) was 0.5 µg/mL and the MIC ([18]; Salmonella enterica, read-out: MIC of β,β-Dim) was > 128 µg/mL. The “MIC of β,β-Dim [Combination]” value ([19]; 20(mcr-1), with colistin) was 4 µg/mL, the MIC [19, 29] was > 128 µg/mL and the “MIC of β,β-Dim [Combination]” value ([20]; 109, with colistin) was 4 µg/mL. For the same molecule, the MIC [20, 29] was > 128 µg/mL, the “MIC of β,β-Dim [Combination]” value ([21]; P. aeruginosa 9, with colistin) was 16 µg/mL and the MIC ([21]; Pseudomonas aeruginosa, read-out: MIC of β,β-Dim) was > 128 µg/mL. The “MIC of β,β-Dim [Combination]” value ([22]; BW25113-184, with colistin) was 2 µg/mL, the MIC [22, 27] was > 128 µg/mL and the “MIC of β,β-Dim [Combination]” value ([23]; 126, with colistin) was 8 µg/mL. For the same molecule, the MIC [23, 29] was > 128 µg/mL, the “MIC of β,β-Dim [Combination]” value ([24]; 13883, with colistin) was 2 µg/mL and the MIC ([24]; Klebsiella pneumoniae, ATCC13883, read-out: MIC of β,β-Dim) was > 128 µg/mL. For the same molecule, the “antibacterial activity against Gram-negative bacteria” value ([25]; β,β-Dim alone) was “did not exhibit antibacterial activity”, the FICI ([25]; β,β-Dim with colistin, summary over tested strains) was < 0.5 and the “bacterial growth (growth curves)” value [26] was “neither β,β-Dim (4 µg/mL) nor colistin (0.5 µg/mL) alone inhibited the growth”.
